Starred links: 1 amine or outer side, 2 acyl side, 3 side chain; linkers in the order of their positions; H or OH if unused. Positions of bridges follow the written chain, without caps; N, C: chain ends. Non-standard residues stand in square brackets, D forms with d. Residues, ends and D or L forms follow the SMILES beside them. X1 = O=C(CC1(S[*:2])CCCCC1)[*:1]; Pen = CC(C)(S)[C@H](N)C(=O)O; Orn = NCCC[C@H](N)C(=O)O; Mpa = O=C(O)CCS

One assay relates to oxytocin. To be noted: reported in the cited literature; cited from earlier work.
In a further assay the test system is ADH. The assay can be described thus: ADH bioassay (alteration in urine output due to ADH). Format: in vivo. The following applies: in vivo. How it is done:
The above compound was also tested for antagonism to vasopressin. Anti-ADH activity can be determined by measuring the alteration in urine output due to ADH in the presence and absence of the antagonist. A suitable ADH-assay is described in Sawyer, et al., Endocrinology, 63:694 (1958). […] The ratio of oxytocin antagonism to ADH antagonism was very high, viz. over 1, 866, as compared with 200 for the compositions disclosed in the parent applications.
The anti-ADH activity is measured by the alteration in urine […] in the presence and absence of the antagonist to determine the specificity of the antagonist. The anti-ADH assay is described in Sawyer, et al., Endocrinology, 63:694 (1958).

A further assay addresses T1, RAT OXYTOCIN RECEPTOR (Rattus norvegicus, UniProt P70536).
T1 construct: from tissue; host or cells: uterus of day-21 pregnant Holtzman rats, sucrose-gradient membrane fraction
T1 sequence (P70536 1-388): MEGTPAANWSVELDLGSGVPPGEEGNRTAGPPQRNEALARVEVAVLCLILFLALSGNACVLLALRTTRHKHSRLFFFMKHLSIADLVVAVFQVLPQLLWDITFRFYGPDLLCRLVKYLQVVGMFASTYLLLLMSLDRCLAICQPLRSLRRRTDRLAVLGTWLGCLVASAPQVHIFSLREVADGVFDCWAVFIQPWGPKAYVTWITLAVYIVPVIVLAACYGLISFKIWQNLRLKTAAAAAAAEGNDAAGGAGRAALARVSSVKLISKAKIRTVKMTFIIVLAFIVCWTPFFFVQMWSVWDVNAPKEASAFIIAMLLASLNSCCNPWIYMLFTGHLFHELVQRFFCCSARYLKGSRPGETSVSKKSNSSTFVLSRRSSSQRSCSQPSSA
Description: Oxytocin receptor assay, pregnant rat uterus (P21) membranes, 3H-OT competition. The class given is binding. How it is done: Uterine tissue was removed on day 21 of pregnancy (delivery=Days 211/2 to 221/2) from Holtzman rats. The tissue was emptied of its contents, rinsed in ice cold buffer, cut into small pieces and frozen at -70° C. until homogenization.
(§1) Oxytocin receptors (OTrs) reside on the cell membrane and are present at high concentrations at the end of pregnancy in uterine tissue. Frozen tissue is homogenized in Tris buffer, the homogenate filtered, and the filtrate centrifuged at 1000 g for 15 minutes at 4° C. The supernatant is centrifuged at 40,000 g for 30 minutes and the pellet containing the cell membranes resuspended in 10% sucrose. Density gradient ultracentrifugation is then performed by placing the 10 % sucrose suspension on top of 35% sucrose and centrifuging for 30 minutes in a swing bucket rotor at 105,000 g. The membranes at the interface of the 10%/35% sucrose are removed and resuspended in Tris buffer containing EDTA for 30 minutes. This procedure removes divalent cation and results in dissociation of any endogenously bound OT to the receptor. This mixture is then centrifuged for 15 minutes at 100,000 g and the pellet containing the membrane OTrs resuspended in Tris, PMSF, Mg^++, buffer by sonication.
(§2) The binding assay consist of 0.1 ml of 20,000 cmp of tritium labeled OT (New England Nuclear, […]), 0.1 ml of OT antagonist added at increasing concentration, 0.25 ml of buffer and 0.05 ml of membrane (70-150 ug protein). A nonspecific tube has 100× of cold OTA added to it. The incubation is for 30 minutes at 30 ° C. The membrane is pelleted by centrifugation in ultraclear mini tubes (5×41 mm) for 30 minutes at 105,000 g. The resulting pellet containing the bound ^3 H-OT is dissolved in 0.1N NaOH at 45 ° C. for 30 minutes and this mixture is then placed in liquid scintillation counting fluid and counted for dpms in a scintillation counter.
(§3) The data is analyzed by nonlinear curve fitting methods using McPherson's EBDA (J Pharmacol Methods 14:213-228, 1985) and Munson and Rodbard's LIGAND (Anal Biochem 107:220-239, 1980) program for saturation and competition analysis for determining Kds and Kis.

Another assay addresses T2, HUMAN OXYTOCIN RECEPTOR (Homo sapiens, UniProt P30559).
T2 construct: Oxytocin receptors (OTrs) reside on the cell membrane and are present at high concentrations at the end of pregnancy in uterine tissue; from tissue; host or cells: human myometrium from cesarean section patients, sucrose-gradient membrane fraction
T2 sequence (P30559 1-389): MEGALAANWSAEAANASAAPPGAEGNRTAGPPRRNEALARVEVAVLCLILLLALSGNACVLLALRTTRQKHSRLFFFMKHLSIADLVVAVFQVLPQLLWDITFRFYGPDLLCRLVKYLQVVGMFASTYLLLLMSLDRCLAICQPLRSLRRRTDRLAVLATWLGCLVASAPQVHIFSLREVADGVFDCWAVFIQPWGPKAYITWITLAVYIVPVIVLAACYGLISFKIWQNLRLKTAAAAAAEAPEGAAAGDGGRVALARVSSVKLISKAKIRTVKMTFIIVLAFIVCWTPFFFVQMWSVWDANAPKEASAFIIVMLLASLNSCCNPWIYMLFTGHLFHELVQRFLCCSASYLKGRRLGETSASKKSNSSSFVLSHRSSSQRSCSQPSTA
Description: Oxytocin receptor assay, human myometrial tissue membranes, 3H-OT competition. The class given is binding. The procedure:
Human myometrial tissue was collected from patients at the time of cesarian section after informed consent. The tissue was rinsed in cold buffer, cut into small pieces and frozen at -70° C. until homogenization.
as §1, §2, §3

The next assay relates to ESTROUS RAT UTERUS. Description: Oxytocic bioassay (isolated rat uterus, integrated contraction response to oxytocin). The class given is cell-based. The source says:
The protocol used for the oxytocin bioassay procedure is derived from procedures described in a paper by Sawyer, et al., Endocrinology, 106:81 (1980), which in turn was based on reports of Munsick, Brit. J. Pharmacol., 3:328 (1960), and Holton, Brit. J. Pharmacol., 3:328 (1948). The assay calculations for the pA2 estimates are described by Schild, British J. Pharmacology, 2:189 (1947). The major difference in the present procedure from those reported by others in the field is that the area under the contraction is integrated where most other techniques calculate the amplitude. Integration provides much more consistent and reliable results although the pA2 estimates are approximately an order of magnitude lower than those reported using amplitude of the contraction as the endpoint.
1. Animals--a 1.5 cm piece of uterus from a virgin rat (Holtzman) in natural estrus is used for the assay.
2. Buffer/Assay Bath--The buffer used is Munsicks. […] The buffer is gassed continuously with 95% oxygen; 5% carbon dioxide giving a pH of 7.4. The temperature of the assay bath is 37° C. A 10 ml assay bath is used that contains a water jacket for maintaining the temperature and inlet and outlet spikets for adding and removing buffer.
3. Polygraph/transducer--The piece of uterine tissue used for the assay is anchored at one end and connected to a Statham Strain Gauge Force Transducer at the other end which in turn is attached to a Grass Polygraph Model 79 for monitoring the contractions.
4. Assay Protocol. (a) The tissue is equilibrated in the assay bath for one hour with washing with new buffer every fifteen minutes. One gram of tension is kept on the tissue at all times.
(b) The tissue is stimulated initially with oxytocin at 10 nM to "acclimate" the tissue and with […] KCl to determine the maximum contractile response.
(d) The tissue is exposed to oxytocin (Calbiochemical, San Diego, Calif.) for one minute and washed out. There is a three minute interval before addition of the next dose of the agonist or antagonist. When the antagonist is tested, it is given five minutes before the agonist. The agonist is given for one minute. All responses are integrated using a 7P10 Grass Integrator. This is the major difference between the present protocol and others in the literature which usually measure amplitude of the contractions as the response. A single concentration of oxytocin, equal to 80% of the maximum response, is used to test the antagonist. […] This is repeated three times for each dose of antagonist for a three point assay.
(e) Calculations for pA2 : The dose-response (DR) ratios are calculated for antagonist and a Schild's Plot is performed by plotting the Log (DR-1) vs. Log of antagonist concentration. The line plotted is calculated by least squares regression analysis. The pA2 is the concentration of antagonist at the point where the regression line crosses the 0 point of the Log (DR-1) ordinate. The pA2 is the negative Log of the concentration of antagonist that will reduce the response to the agonist by one-half.
The protocol used for the oxytocin bioassay procedure is derived from procedures described in a paper by Sawyer, et al., Endocrinology, 106:81 (1980), which in turn was based on reports of Munsick, Brit. J. Pharmacol., 3:328 (1960), and Holton, Brit. J. Pharmacol., 3:328 (1948). The assay calculations for the pA2 estimates are described by Schild, Brit. J. Pharmacol. (1947). The major difference in procedure from those previously reported was the integration of the area under the contraction instead of merely calculating the amplitude. Integration provides more consistent and reliable results, although the pA2 estimates are about an order of magnitude lower than those reported using amplitude of the contraction as the endpoint.
A 1.5 cm piece of uterus from a virgin rat (Holtzman) in natural estrus is used for the assay.
The buffer used is Munsick's. […]

As to “1deamino[D-Tyr(OEt)^2, Thr^4, Orn^8 ] vasopressin”, in the assay on oxytocin, the “pA2 (anti-oxytocic, literature)” value was 8.3.

In the case of `CC[C@H](C)[C@@H]1NC(=O)[C@@H](Cc2c[nH]c3ccccc23)NC(=O)CC2(CCCCC2)SSC[C@@H](C(=O)N2CCC[C@H]2C(=O)N[C@@H](CCCNC(=N)N)C(=O)NCC(N)=O)NC(=O)[C@H](CC(N)=O)NC(=O)[C@H](CCC(N)=O)NC1=O` [Compound C, [Pmp^1, D-Trp^2, Arg^8] oxytocin] ([dW]IQNCPRG-NH2; linker N-5 via X1), in the assay on ADH, the “ADH Bioassay pA2” value is reported as 5.51. Besides, the Kd (commonly a measure of binding affinity in units of concentration) was 4.93 nM on RAT OXYTOCIN RECEPTOR and 5.49 nM at HUMAN OXYTOCIN RECEPTOR.

As to `CCOc1ccc(C[C@H]2NC(=O)CCSSC[C@@H](C(=O)N3CCC[C@H]3C(=O)N[C@@H](CCCN)C(=O)NCC(N)=O)NC(=O)[C@H](CC(N)=O)NC(=O)[C@H]([C@@H](C)O)NC(=O)[C@H]([C@@H](C)CC)NC2=O)cc1` [E, [Mpa^1,DTyr(Et)^2,Thr^4, Orn^8] oxytocin, reference compound] ([Mpa][dY](Et)ITNCP[Orn]G-NH2; disulfide 1-6), the “OXYTOCIC BIOASSAY ED50” value with ESTROUS RAT UTERUS (estrous rat uterus, Table 3) was 102.33 nM. In addition, the “BIOASSAY ED50” value in the assay on ESTROUS RAT UTERUS (estrous rat uterus, Table 4) was found to be 102.3 nM. Also, in the assay with ESTROUS RAT UTERUS (ratio to ANTAG I, rat oxytocic bioassay), the “BIOASSAY (ANTI/OTA)” value is 0.3. Further, the Kd is 19.6 nM on RAT OXYTOCIN RECEPTOR and 18.9 nM on HUMAN OXYTOCIN RECEPTOR. The “rOTr (OTA/ANTI)” value on RAT OXYTOCIN RECEPTOR (ratio of binding affinity to ANTAG I, rat oxytocin receptor) was determined as 0.4. Moreover, the “hOTR (OTA/ANTI)” value at HUMAN OXYTOCIN RECEPTOR (ratio of binding affinity to ANTAG I, human oxytocin receptor) is 1.0.

Turning to 1-deamino, ethyloxytocin, in the assay on oxytocin, the “pA2 (anti-oxytocic, literature)” value is on record as 7.2.

With `CC[C@H](C)[C@@H]1NC(=O)[C@H](Cc2ccccc2)NC(=O)[C@@H](Cc2ccccc2)NC(=O)CC2(CCCCC2)SSC[C@@H](C(=O)N2CCC[C@H]2C(=O)N[C@@H](CCCNC(=N)N)C(=O)NCC(N)=O)NC(=O)[C@H](CC(N)=O)NC1=O` [Compound A, [Pmp^1,D-Phe^2,Phe^3,Ile^4,Arg^8] oxytocin, reference compound] ([dF]FINCPRG-NH2; linker N-5 via X1), the “Oxytocic Bioassay pA2” value with ESTROUS RAT UTERUS (virgin rat uterus in natural estrus, Munsick's buffer 0.5 mM Mg++, integrated contraction area) is listed as 7.35. The “ADH Bioassay pA2” value with ADH is on record as 7.66.

As for “(1-deaminopenicillamine, 2-0-methyltyrosine) oxytocin”, in the assay on oxytocin, the “pA2 (anti-oxytocic, literature)” value is given as 7.8.

As to `CC[C@H](C)[C@@H]1NC(=O)[C@@H](Cc2c[nH]c3ccccc23)NC(=O)CC2(CCCCC2)SSC(C)(C)[C@@H](C(=O)N2CCC[C@H]2C(=O)N[C@@H](CCCNC(=N)N)C(=O)NCC(N)=O)NC(=O)[C@H](CC(N)=O)NC(=O)[C@H](CCC(N)=O)NC1=O` [Compound C2, [Pmp^1, DTrp^2, Pen^6, Arg^8] oxytocin] ([dW]IQN[Pen]PRG-NH2; linker N-5 via X1), at RAT OXYTOCIN RECEPTOR, the Kd was 0.87 nM.

The values are drawn from patent US5373089A, “Oxytocin antagonist” (Northwestern University, priority 1993, dated 1994).
